Measured values reported in patent US11197871B2, “Methods and materials for treating calcific aortic valve stenosis” (Mayo Foundation for Medical Education and Research, priority 2012, dated 2021).
Entries after “also recorded” stand apart in the source; their conditions may differ.

What was measured:
[1] = tested on: aortic valve interstitial cells; assay: Western blotting of BMP, TGFβ and sGC signaling in valve interstitial cells treated with BMP2, TGFβ1 or vehicle, with or without Ataciguat, for 18 hours; type: cell-based, human and mouse; conditions: Ataciguat 1 μmol, 37° C.
Description: FIG. 4 is a graph plotting p-VASP^239 levels detected in aortic valve interstitial cells treated with BMP2 (100 ng/mL), TGFβ1 (10 ng/mL), or neither (control; CTRL) in the presence or absence of Ataciguat (1 μmol) for 18 hours at 37° C.
FIG. 5 is a graph plotting p-Smad1/5/8 levels detected in aortic valve interstitial cells treated with BMP2 (100 ng/mL), TGFβ1 (10 ng/mL), or neither (control; CTRL) in the presence or absence of Ataciguat (1 μmol) for 18 hours at 37° C.
FIG. 6 is a graph plotting Sp7 levels detected in aortic valve interstitial cells treated with BMP2 […], or neither (control; CTRL) in the presence or absence of Ataciguat (1 μmol) for 18 hours at 37° C.
FIG. 7 is a graph plotting p-Smad2 levels detected in aortic valve interstitial cells treated with BMP2 […], or neither (control; CTRL) in the presence or absence of Ataciguat (1 μmol) for 18 hours at 37° C.
Additional experiments were performed to confirm that Ataciguat activates sGC signaling, attenuates BMP2 signaling, attenuates BMP2 target induction, and attenuates fibrogenic signaling in valve interstitial cells. In brief, cells were maintained in Dulbecco's Modified Eagle's Medium (DMEM) with 20% fetal bovine serum (FBS) and expanded to confluence in 6 well plates in a standard 5% CO2 incubator at 37° C. Cells were then treated with BMP2 (100 ng/mL), TGFβ1 (10 ng/mL), or vehicle (phosphate buffered saline) in the absence or presence of Ataciguat (1 μmol) for 18 hours. Cells were lysed using standard protein lysis buffer containing protease and phosphatase inhibitors, and Western blotting was performed to evaluate changes in protein levels of BMP, TGFβ, and sGC signaling.

[2] = tested on: aortic valve interstitial cells; assay: BMP2-treated aortic valve interstitial cells with or without Ataciguat for 24 hours (pVASP239, Sp7); type: cell-based; conditions: in vitro
Description: Overexpression of DDAH1 reduces endogenous inhibitors of NOS, increases NO production, and increases sGC signaling, ultimately resulting in slower progression of CAVS.
To determine whether induction of sGC signaling reduced osteogenic signaling in vitro, aortic valve interstitial cells were treated with BMP2 in the presence or absence of Ataciguat (HMR1766, 5-Chloro-2-[[(5-chloro-2-thienyl)sulfonyl]amino]-N-[4-(4-morpholinylsulfonyl)phenyl]benzamide) for 24 hours.

In the case of `O=C(Nc1ccc(S(=O)(=O)N2CCOCC2)cc1)c1cc(Cl)ccc1NS(=O)(=O)c1ccc(Cl)s1` [Ataciguat, 5-Chloro-2-[[(5-chloro-2-thienyl)sulfonyl]amino]-N-[4-(4-morpholinylsulfonyl)phenyl]benzamide], the “sGC signaling (p-VASP239 levels)” value ([1]; BMP2 100 ng/mL, TGFβ1 10 ng/mL or control, FIG. 4, replicated in human (HAV-001, HAV-002, HAV-003) and mouse (MAV1, MAV2, MAV4) cell lines) is reported as “effectively activated sGC signaling”, the “BMP2 signaling (p-Smad1/5/8 levels)” value ([1]; BMP2 100 ng/mL, TGFβ1 10 ng/mL or control, FIG. 5, replicated in human and mouse cell lines) is reported as “attenuated canonical BMP2 signaling” and the “BMP2 target induction (Sp7 levels)” value ([1]; BMP2, TGFβ1 or control, FIG. 6, replicated in human and mouse cell lines) is reported as “attenuated BMP target induction; also recorded: attenuated BMP2 target induction”. The “fibrogenic signaling (p-Smad2 levels)” value ([1]; BMP2, TGFβ1 or control, FIG. 7, replicated in human and mouse cell lines) was “partially attenuated fibrogenic signaling”, the “sGC signaling (indicated by pVASP239 levels)” value ([2]; FIG. 2A) was “activated sGC signaling” and the “osteogenic signaling (BMP2-induced Sp7 expression)” value ([2]; FIG. 2B) was “profoundly suppressed osteogenic signaling”.
